# Assay results published in ChEMBL document CHEMBL1154955, “Discovery of potent and selective bicyclic A(2B) adenosine receptor antagonists via bioisosteric amide replacement” (Bioorg Med Chem Lett, 2010).
# Tests used:
# Adenosine receptor A2b = molecular target: T1, Adenosine receptor A2b (Homo sapiens, UniProt P29275); test: Displacement of [3H]DPCPX from human adenosine A2B receptor expressed in HEK293 cells after 60 mins by filtration binding assay; assay type: cell-based
# T1 sequence (P29275 whole entry): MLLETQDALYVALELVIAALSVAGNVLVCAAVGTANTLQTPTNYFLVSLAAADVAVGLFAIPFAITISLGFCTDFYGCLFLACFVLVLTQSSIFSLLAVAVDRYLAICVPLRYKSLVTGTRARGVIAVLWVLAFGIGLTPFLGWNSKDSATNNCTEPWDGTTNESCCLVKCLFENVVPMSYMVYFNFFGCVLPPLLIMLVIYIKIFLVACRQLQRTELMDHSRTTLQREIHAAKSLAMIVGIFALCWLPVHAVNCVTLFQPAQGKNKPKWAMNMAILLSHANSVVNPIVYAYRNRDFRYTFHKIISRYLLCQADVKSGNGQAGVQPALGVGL
# Adenosine receptor A2a = Adenosine receptor A2a (Homo sapiens, UniProt P29274); test: Displacement of [3H]ZM241385 from human adenosine A2A receptor expressed in human HeLa cells after 1 hr by scintillation proximity assay; assay type: cell-based
# Sequence of Adenosine receptor A2a (P29274 whole entry): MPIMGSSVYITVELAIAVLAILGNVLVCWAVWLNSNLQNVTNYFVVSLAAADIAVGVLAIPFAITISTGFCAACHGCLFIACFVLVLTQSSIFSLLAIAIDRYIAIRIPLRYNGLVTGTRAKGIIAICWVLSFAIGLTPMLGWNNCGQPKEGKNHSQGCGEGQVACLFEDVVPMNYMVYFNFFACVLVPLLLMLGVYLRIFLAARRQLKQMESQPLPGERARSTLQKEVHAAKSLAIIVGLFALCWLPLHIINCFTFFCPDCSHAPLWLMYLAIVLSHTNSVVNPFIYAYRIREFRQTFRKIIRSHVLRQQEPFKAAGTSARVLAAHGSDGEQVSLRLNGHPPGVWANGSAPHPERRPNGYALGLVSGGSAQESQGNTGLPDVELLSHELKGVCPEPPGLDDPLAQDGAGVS
# Adenosine receptor A1 = molecular target: T2, Adenosine receptor A1 (Homo sapiens, UniProt P30542); test: Displacement of [3H]DPCPX from human adenosine A1 receptor expressed in CHO cells after 90 mins by filtration binding assay; assay type: cell-based
# T2 sequence (P30542 whole entry): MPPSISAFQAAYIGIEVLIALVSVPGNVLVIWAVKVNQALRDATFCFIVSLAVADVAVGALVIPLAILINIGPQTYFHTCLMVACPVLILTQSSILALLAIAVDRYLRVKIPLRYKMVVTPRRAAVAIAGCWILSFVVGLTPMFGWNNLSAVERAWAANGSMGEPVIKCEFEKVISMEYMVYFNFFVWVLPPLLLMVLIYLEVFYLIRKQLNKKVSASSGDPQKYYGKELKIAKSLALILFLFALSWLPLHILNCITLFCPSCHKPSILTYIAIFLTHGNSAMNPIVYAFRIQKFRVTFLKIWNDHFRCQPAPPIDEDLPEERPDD
# [1] = molecular target: T3, Adenosine receptor A3 (Homo sapiens) (UniProt P0DMS8); test: Inhibition of [3H]NECA binding to human adenosine A3 receptor expressed in human HeLa cells at 1 uM after 3 hrs by filtration binding assay; assay type: cell-based
# T3 sequence (whole entry): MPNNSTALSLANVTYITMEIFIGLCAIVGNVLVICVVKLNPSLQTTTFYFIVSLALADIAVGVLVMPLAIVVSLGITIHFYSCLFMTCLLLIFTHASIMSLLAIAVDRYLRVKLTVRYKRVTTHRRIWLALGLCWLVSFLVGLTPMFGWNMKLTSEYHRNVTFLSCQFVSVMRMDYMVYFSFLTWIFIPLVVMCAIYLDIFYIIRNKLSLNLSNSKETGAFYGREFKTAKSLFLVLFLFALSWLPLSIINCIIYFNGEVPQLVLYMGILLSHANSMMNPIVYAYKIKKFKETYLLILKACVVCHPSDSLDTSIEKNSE
# [2] = Metabolic stability in rat liver microsomes assessed as turnover at 5 uM after 30 mins in absence of NADPH; assay type: ADME, Microsome; details: read-out: Stability
# [3] = Apparent permeability across human Caco-2 cells at 12.5 uM; assay type: ADME, cell-based; details: read-out: permeability
# Adenosine receptor A3 = molecular target: T4, Adenosine receptor A3 (Homo sapiens, UniProt P0DMS8); test: Displacement of [3H]NECA from human adenosine A3 receptor expressed in human HeLa cells after 3 hrs by filtration binding assay; assay type: cell-based
# T4 sequence (P0DMS8 whole entry): T3 sequence (whole entry)
# [4] = Thermodynamic solubility at pH 7.4; assay type: physicochemical; details: buffer
# [5] = Terminal half life in rat at 1 mg/kg, iv; assay type: ADME, organism-based; design: dose 1 mg/kg, route intravenous; details: in vivo
# [6] = Cmax in rat at 1 mg/kg, iv; assay type: ADME, organism-based; design: dose 1 mg/kg, route intravenous; details: in vivo
# [7] = Clearance in rat at 1 mg/kg, iv; assay type: ADME, organism-based; design: dose 1 mg/kg, route intravenous; details: in vivo
# [8] = AUC (0 to infinity) in rat at 1 mg/kg, iv; assay type: ADME, organism-based; design: time infinity, dose 1 mg/kg, route intravenous; details: plasma
# [9] = Volume of distribution at steady state in rat at 1 mg/kg, iv; assay type: ADME, organism-based; design: dose 1 mg/kg, route intravenous; details: in vivo, read-out: Vdss
# [10] = Oral bioavailability in rat at 10 mg/kg; assay type: ADME, organism-based; details: in vivo
smiles,measurement,setting,value
Cn1c(=O)[nH]c2nc(-c3ccco3)c(-c3ccncn3)cc21,Ki,Adenosine receptor A2b,11 nM
same,Ki,Adenosine receptor A2a,2130 nM
same,Ki,Adenosine receptor A1,2440 nM
same,inhibition,[1],17%
same,"metabolised at 0.5 h, 5 µM",[2],8%
same,Papp at 12.5 µM,[3],32 ×10⁻⁶ cm/s
O=c1[nH]c(=O)c2cc(-c3ccncn3)c(-c3ccco3)nc2[nH]1,Ki,Adenosine receptor A2b,1 nM
same,Ki,Adenosine receptor A2a,181 nM
same,Ki,Adenosine receptor A1,1730 nM
same,Ki,Adenosine receptor A3,6270 nM
same,"metabolised at 0.5 h, 5 µM",[2],0%
same,Papp at 12.5 µM,[3],20 ×10⁻⁶ cm/s
same,solubility thermodynamic,[4],61 µg/mL
same,half-life,[5],24 min
same,Cmax,[6],1680 ng/mL
same,clearance,[7],20 mL/min/kg
same,AUC(0-inf),[8],880 ng·h/mL
same,Vd,[9],0.75 L/kg
c1coc(-c2nc3[nH]cnc3cc2-c2ccncn2)c1,Ki,Adenosine receptor A2b,21 nM
same,Ki,Adenosine receptor A2a,3600 nM
same,Ki,Adenosine receptor A1,717 nM
same,inhibition,[1],0%
same,"metabolised at 0.5 h, 5 µM",[2],10%
same,Papp at 12.5 µM,[3],23 ×10⁻⁶ cm/s
O=C(Nc1ccc(-c2ccncn2)c(-c2ccco2)n1)C1CC1,Papp at 12.5 µM,[3],45 ×10⁻⁶ cm/s
O=c1[nH]c2cc(-c3ccncn3)c(-c3ccco3)nc2[nH]1,Ki,Adenosine receptor A2b,6 nM
same,Ki,Adenosine receptor A2a,769 nM
same,Ki,Adenosine receptor A1,317 nM
same,inhibition,[1],18%
same,"metabolised at 0.5 h, 5 µM",[2],15%
same,Papp at 12.5 µM,[3],40 ×10⁻⁶ cm/s
same,solubility thermodynamic,[4],48 µg/mL
same,half-life,[5],60 min
same,Cmax,[6],762 ng/mL
same,clearance,[7],50 mL/min/kg
same,AUC(0-inf),[8],350 ng·h/mL
same,Vd,[9],1 L/kg
same,bioavailability,[10],20%
O=c1[nH][nH]c2nc(-c3ccco3)c(-c3ccncn3)cc12,Ki,Adenosine receptor A2b,3 nM
same,Ki,Adenosine receptor A2a,177 nM
same,Ki,Adenosine receptor A1,82 nM
same,inhibition,[1],2%
same,"metabolised at 0.5 h, 5 µM",[2],7%
same,Papp at 12.5 µM,[3],3.5 ×10⁻⁶ cm/s
same,half-life,[5],24 min
same,Cmax,[6],1330 ng/mL
same,clearance,[7],33.3 mL/min/kg
same,AUC(0-inf),[8],504 ng·h/mL
same,Vd,[9],0.6 L/kg
c1coc(-c2nc3[nH]ncc3cc2-c2ccncn2)c1,Ki,Adenosine receptor A2b,23 nM
same,Ki,Adenosine receptor A2a,1660 nM
same,Ki,Adenosine receptor A1,478 nM
same,inhibition,[1],2%
same,"metabolised at 0.5 h, 5 µM",[2],17%
same,Papp at 12.5 µM,[3],39 ×10⁻⁶ cm/s
same,solubility thermodynamic,[4],296 µg/mL
same,half-life,[5],36 min
same,Cmax,[6],1050 ng/mL
same,clearance,[7],23.3 mL/min/kg
same,AUC(0-inf),[8],736 ng·h/mL
same,Vd,[9],0.8 L/kg
c1coc(-c2nc3[nH]ccc3cc2-c2ccncn2)c1,Ki,Adenosine receptor A2b,13 nM
same,Ki,Adenosine receptor A2a,619 nM
same,Ki,Adenosine receptor A1,252 nM
same,inhibition,[1],7%
same,"metabolised at 0.5 h, 5 µM",[2],88%
same,Papp at 12.5 µM,[3],40 ×10⁻⁶ cm/s
Nc1n[nH]c2nc(-c3ccco3)c(-c3ccncn3)cc12,Ki,Adenosine receptor A2b,8 nM
same,Ki,Adenosine receptor A2a,858 nM
same,Ki,Adenosine receptor A1,357 nM
same,inhibition,[1],15%
same,"metabolised at 0.5 h, 5 µM",[2],6%
same,Papp at 12.5 µM,[3],24 ×10⁻⁶ cm/s
same,solubility thermodynamic,[4],204 µg/mL
same,half-life,[5],24 min
same,Cmax,[6],397 ng/mL
same,clearance,[7],102 mL/min/kg
same,AUC(0-inf),[8],164 ng·h/mL
same,Vd,[9],3.7 L/kg
